Measured values: patent US4147861A, “1N-(α-Hydroxy-ω-aminoalkanoyl)- 6'N-methyl-3',4'-dideoxykanamycin B and the production thereof” (Zaidan Hojin Biseibutsu Kagaku Kenkyu Kai, priority 1977, dated 1979)

Experiments:
[1] = tested on: Escherichia coli LA290 R64; assay: Minimum inhibitory concentration, serial dilution method on nutrient agar; type: cell-based; conditions: LA290R64, 18 h, read-out: Minimum Inhibitory Concentrations
[2] = tested on: Escherichia coli K-12 ML 1629; assay: as above; type: cell-based; conditions: Escherichia coli, K12ML1629, 18 h, read-out: Minimum Inhibitory Concentrations
Sarcina lutea PCI 1001 = assay: as above; type: cell-based; conditions: Micrococcus luteus, PCI1001, 18 h, read-out: Minimum Inhibitory Concentrations
[3] = tested on: Mycobacterium smegmatis ATCC 607; assay: as above; type: cell-based; conditions: Mycolicibacterium smegmatis, ATCC607, 37° C., 18 hours, read-out: Minimum Inhibitory Concentrations
[4] = tested on: Pseudomonas aeruginosa GN315; assay: as above; type: cell-based; conditions: Pseudomonas aeruginosa GN315; 37° C., 18 hours; read-out: Minimum Inhibitory Concentrations
[5] = tested on: Pseudomonas aeruginosa A3; assay: as above; type: cell-based; conditions: 37° C., 18 hours, read-out: Minimum Inhibitory Concentrations
Experimental: (§1) The minimum inhibitory concentrations (mcg./ml.) of 1N-(DL-isoseryl)-6'N-methyl-3',4'-dideoxykanamycin B (abbreviated as DL-IS-MDKB); 1N-(L-isoseryl)-6'N-methyl-3',4'-dideoxykanamycin B (abbreviated as L-IS-MDKB); 1N-(L-4-amino-[…])-6'N-methyl-3',4'-dideoxykanamycin B (abbreviated as AHB-MDKB); and 1N-(L-5-amino-2-hydroxyvaleryl)-6'N-methyl-3',4'-dideoxykanamycin B (abbreviated as AHV-MDBK) against various organisms were determined according to serial dilution method using nutrient agar medium at 37° C., the readings being made after 18 hours incubation. For the comparison purpose, the minimum inhibitory concentrations (mcg./ml.) of 1 N-(L-4-amino-2-hydroxybutyryl)-kanamycin A (abbreviated as AHB-KMA) and 1N-([…])-kanamycin B (abbreviated as AHB-KMB) which are known from U.S. Pat. No. 3,781,268 were also determined by the same manner as stated above.

[6] = tested on: Klebsiella pneumoniae 22 No. 3038; assay: as above; type: cell-based; conditions: 37° C., 18 hours, read-out: Minimum Inhibitory Concentrations
Experimental: as §1

[7] = tested on: Shigella flexneri 4b JS 11811; assay: as above; type: cell-based; conditions: 4BJS11811, 37° C., 18 hours, read-out: Minimum Inhibitory Concentrations
Experimental: as §1

Shigella sonnei JS 11746 = assay: as above; type: cell-based; conditions: JS11746, 37° C., 18 hours, read-out: Minimum Inhibitory Concentrations
Experimental: as §1

[8] = tested on: Escherichia coli K-12 ML 1630; assay: as above; type: cell-based; conditions: K12ML1630, 37° C., 18 hours, read-out: Minimum Inhibitory Concentrations
Experimental: as §1

[9] = tested on: Escherichia coli K-12 ML 1410; assay: as above; type: cell-based; conditions: Escherichia coli, K12ML1410, 18 h, read-out: Minimum Inhibitory Concentrations
Staphylococcus aureus = assay: as above; type: cell-based; conditions: 37° C., 18 hours, read-out: Minimum Inhibitory Concentrations
Escherichia coli W677 = assay: as above; type: cell-based; conditions: Escherichia coli, W677, 18 h, read-out: Minimum Inhibitory Concentrations
[10] = tested on: Pseudomonas aeruginosa TI-13; assay: as above; type: cell-based; conditions: TI13; Pseudomonas aeruginosa TI-13; 37° C., 18 hours; read-out: Minimum Inhibitory Concentrations
[11] = tested on: Pseudomonas aeruginosa 99; assay: as above; type: cell-based; conditions: 37° C., 18 hours, read-out: Minimum Inhibitory Concentrations
Salmonella typhosa T-63 = assay: as above; type: cell-based; conditions: Salmonella enterica, 18 h, read-out: Minimum Inhibitory Concentrations
[12] = tested on: Klebsiella pneumoniae PCT 602; assay: as above; type: cell-based; conditions: Klebsiella pneumoniae, PCT602, 18 h, read-out: Minimum Inhibitory Concentrations
[13] = tested on: Staphylococcus aureus Terajima; assay: as above; type: cell-based; conditions: 37° C., 18 hours, read-out: Minimum Inhibitory Concentrations
[14] = tested on: Pseudomonas aeruginosa No. 12; assay: as above; type: cell-based; conditions: Pseudomonas aeruginosa, NO.12, 18 h, read-out: Minimum Inhibitory Concentrations
[15] = tested on: Escherichia coli LA290 R55; assay: as above; type: cell-based; conditions: LA290R55, 18 h, read-out: Minimum Inhibitory Concentrations
Escherichia coli K-12 = assay: as above; type: cell-based; conditions: Escherichia coli, K12, 18 h, read-out: Minimum Inhibitory Concentrations
[16] = tested on: Bacillus cereus ATCC 10702; assay: as above; type: cell-based; conditions: Bacillus cereus, ATCC10702, 18 h, read-out: Minimum Inhibitory Concentrations
[17] = tested on: Escherichia coli K-12 ML 1410 R81; assay: as above; type: cell-based; conditions: 18 h, read-out: Minimum Inhibitory Concentrations
Escherichia coli NIHJ = assay: as above; type: cell-based; conditions: Escherichia coli, 18 h, read-out: Minimum Inhibitory Concentrations
[18] = tested on: Escherichia coli JR66/W677; assay: as above; type: cell-based; conditions: Escherichia coli, JR66/W677, 18 h, read-out: Minimum Inhibitory Concentrations
[19] = tested on: Staphylococcus aureus FDA 209P; assay: as above; type: cell-based; conditions: FDA209P, 37° C., 18 hours, read-out: Minimum Inhibitory Concentrations
[20] = tested on: Bacillus subtilis NRRL B-558; assay: as above; type: cell-based; conditions: NRRLB558, 37° C., 18 hours, read-out: Minimum Inhibitory Concentrations
[21] = tested on: Salmonella enteritidis 1891; assay: as above; type: cell-based; conditions: Salmonella enterica, ENTERITIDIS, 18 h, read-out: Minimum Inhibitory Concentrations
[22] = tested on: Shigella dysenteriae JS 11910; assay: as above; type: cell-based; conditions: JS11910, 18 h, read-out: Minimum Inhibitory Concentrations
Bacillus anthracis = assay: microbe, parasite or virus in culture; type: cell-based; conditions: 18 h, read-out: Minimum Inhibitory Concentrations
[23] = tested on: Bacillus subtilis PCI 219; assay: Minimum inhibitory concentration, serial dilution method on nutrient agar; type: cell-based; conditions: PCI219, 37° C., 18 hours, read-out: Minimum Inhibitory Concentrations
Proteus vulgaris OX 19 = assay: as above; type: cell-based; conditions: Proteus vulgaris, OX19, 18 h, read-out: Minimum Inhibitory Concentrations
[24] = tested on: Escherichia coli LA290 R56; assay: as above; type: cell-based; conditions: LA290R56, 18 h, read-out: Minimum Inhibitory Concentrations
Escherichia coli K-12 R5 = assay: as above; type: cell-based; conditions: K12R5, 18 h, read-out: Minimum Inhibitory Concentrations
[25] = tested on: Corynebacterium bovis 1810; assay: as above; type: cell-based; conditions: Corynebacterium bovis, 1810, 18 h, read-out: Minimum Inhibitory Concentrations
[26] = tested on: kanamycin-resistant bacteria; conditions: prior art statement; cited from earlier work

CNC[C@@H]1CC[C@@H](N)[C@@H](O[C@H]2[C@H](O)[C@@H](O[C@H]3O[C@H](CO)[C@@H](O)[C@H](N)[C@H]3O)[C@H](NC(=O)C(O)CN)C[C@@H]2N)O1 (mixture of isomers) [DL-IS-MDKB, 1N-(DL-isoseryl)-6'N-methyl-3',4'-dideoxykanamycin B]
MIC [1]: 0.78 µg/mL | MIC [2]: 1.56 µg/mL | MIC (Sarcina lutea PCI 1001): 6.25 µg/mL | MIC [3]: 0.39 µg/mL | MIC [4]: 12.5 µg/mL | MIC [5]: 3.13 µg/mL | MIC [6]: 3.13 µg/mL | MIC [7]: 3.13 µg/mL | MIC (Shigella sonnei JS 11746): 3.13 µg/mL | MIC [8]: 3.13 µg/mL | MIC [9]: 3.13 µg/mL | MIC (Staphylococcus aureus): < 0.2 µg/mL | MIC (Escherichia coli W677): 1.56 µg/mL | MIC [10]: 12.5 µg/mL | MIC [11]: 25 µg/mL | MIC (Salmonella typhosa T-63): 1.56 µg/mL | MIC [12]: 1.56 µg/mL | MIC [13]: < 0.2 µg/mL | MIC [14]: 6.25 µg/mL | MIC [15]: 3.13 µg/mL | MIC (Escherichia coli K-12): 1.56 µg/mL | MIC [16]: 3.13 µg/mL | MIC [17]: 3.13 µg/mL | MIC (Escherichia coli NIHJ): 1.56 µg/mL | MIC [18]: 3.13 µg/mL | MIC [19]: 0.78 µg/mL | MIC [20]: < 0.2 µg/mL | MIC [21]: 3.13 µg/mL | MIC [22]: 6.25 µg/mL | MIC (Bacillus anthracis): < 0.2 µg/mL | MIC [23]: < 0.2 µg/mL | MIC (Proteus vulgaris OX 19): 1.56 µg/mL | MIC [24]: 0.78 µg/mL | MIC (Escherichia coli K-12 R5): 3.13 µg/mL | MIC [25]: 3.13 µg/mL

NC[C@@H]1CC[C@@H](N)[C@@H](O[C@H]2[C@H](O)[C@@H](O[C@H]3O[C@H](CO)[C@@H](O)[C@H](N)[C@H]3O)[C@H](N)C[C@@H]2N)O1 [3',4'-dideoxykanamycin B, 3',4'-Dideoxykanamycin B]
activity against kanamycin-resistant bacteria [26]: active against a large number of kanamycin-resistant bacteria

CNC[C@@H]1CC[C@@H](N)[C@@H](O[C@H]2[C@H](O)[C@@H](O[C@H]3O[C@H](CO)[C@@H](O)[C@H](N)[C@H]3O)[C@H](N)C[C@@H]2N)O1 [6'N-methyl-3',4'-dideoxykanamycin B, 6'N-Methyl-3',4'-dideoxykanamycin B]
activity against kanamycin-resistant bacteria [26]: active against a large number of kanamycin-resistant bacteria
